Measurements as given in US7989649B2, “Tumor imaging compounds” (Emory University, priority 2002, dated 2011).

Columns and labels:
[1] = Rodent biodistribution study in normal Fischer rats; type: in vivo, rat; conditions: for Tissue distribution of radioactivity, Blood / Tissue distribution of radioactivity, Bone / Tissue distribution of radioactivity, Brain / Tissue distribution of radioactivity, Heart / Tissue distribution of radioactivity, Kidney / Tissue distribution of radioactivity, Liver / Tissue distribution of radioactivity, Lung / Tissue distribution of radioactivity, Muscle / Tissue distribution of radioactivity, Pancreas / Tissue distribution of radioactivity, Spleen / Tissue distribution of radioactivity, Testis: normal Fischer rats
Experimental: Rodent biodistribution studies. The same procedures were used to evaluate [^18F]5a and [^18F]5b separately in rodents. The tissue distribution of radioactivity was determined in 16 normal male Fischer 344 rats (200-250 g) after intravenous injection of ˜85 μCi of [^18F]5a or [^18F]5b in 0.3 mL of sterile water. The animals were allowed food and water ad libitum before the experiment. Following anesthesia induced with an intramuscular injection of 0.1 mL/100 g of a 1:1 ketamine ([…]):xylazine (20 mg/mL) solution, the radiolabeled amino acid was injected into the rats via tail vein catheters. Groups of four rats were killed at 5 minutes, 30 minutes, 60 minutes and 120 minutes after injection of the dose. The animals were dissected, and selected tissues were weighed and counted along with dose standards in a Packard Cobra II Auto-Gamma Counter. The raw counts were decay corrected, and the counts were normalized as the percent of total injected dose per gram of tissue (% ID/g). A comparison of the uptake of activity in the tissues at each time point was analyzed using a 1-way ANOVA (GraphPad Prism software package).

9 L gliosarcoma tumor = experiment: Biodistribution in Fischer rats with intracranial 9 L gliosarcoma tumor; type: in vivo; conditions: for Tissue distribution of radioactivity, Blood / Tissue distribution of radioactivity, Bone / Tissue distribution of radioactivity, Heart / Tissue distribution of radioactivity, Kidney / Tissue distribution of radioactivity, Liver / Tissue distribution of radioactivity, Lung / Tissue distribution of radioactivity, Muscle / Tissue distribution of radioactivity, Pancreas / Tissue distribution of radioactivity, Spleen / Tissue distribution of radioactivity, Testis / Tissue distribution of radioactivity, Tumor / Tissue distribution of radioactivity, Brain: tumor-bearing Fischer rats; for Tissue distribution of radioactivity, Brain: normal brain contralateral to tumor
Experimental: Tumor induction and animal preparation. All animal experiments were carried out under humane conditions and were approved by the Institutional Animal Use and Care Committee (IUCAC) at Emory University. Rat 9 L gliosarcoma cells were implanted into the brains of male Fischer rats as described previously [Shoup, T M et al. (1999), J. Nucl. Med. 40:331-338]. Briefly, anesthetized rats placed in a stereotactic head holder were injected with a suspension of 4×10^4 rat 9 L gliosarcoma cells (1×10^7 per mL) in a location 3 mm right of midline and 1 mm anterior to the bregma at a depth of 5 mm deep to the outer table. The injection was performed over the course of 2 minutes, and the needle was withdrawn over the course of 1 minute to minimize the backflow of tumor cells. The burr hole and scalp incision were closed, and the animals were returned to their original colony after recovering from the procedure. Intracranial tumors developed that produced weight loss, apathy and hunched posture in the tumor-bearing rats, and the animals were used at 17-19 days after implantation. Of the 30 animals implanted with tumor cells, 25 developed tumors visible to the naked eye upon dissection and were used in the study.
The tissue distribution of radioactivity was also determined in tumor-bearing Fischer 344 rats following intravenous injection of ˜35 μCi of [^18F]5a or [^18F]5b in 0.3 mL of sterile water. The procedure was similar to that already described for normal rats with the following modifications. The tail vein injections were performed in awake animals using a RTV-190 rodent restraint device (Braintree Scientific) to avoid mortality accompanying anesthesia in the presence of an intracranial mass. The animals were killed at 5 minutes, 60 minutes or 120 minutes post-injection. The same tissues were assayed as in normal rats with the addition of the tumor tissue, and the corresponding region of brain contralateral to the tumor was excised and used for comparison. The uptake in the tumor and contralateral brain at each time point was compared via a two-tailed t-test for paired observations (GraphPad Prism software package).

[2] = 5 min after injection, listed as [^18F]FAMP (5a)
[3] = 120 min after injection, listed as [^18F]FAMP (5a)
[4] = 60 min after injection, listed as [^18F]FAMP (5a)

Compound: CC(N)(CF)C(=O)O (racemic) [[^18F]5a, 2-amino-3-fluoro-2-methylpropanoic acid]
- Tissue distribution of radioactivity, Blood ([1]; 5 min after injection): 0.53 ± 0.03 percent dose per gram
- Tissue distribution of radioactivity, Bone ([1]; 5 min after injection): 0.27 ± 0.005 percent dose per gram
- Tissue distribution of radioactivity, Brain ([1]; 5 min after injection): 0.04 ± 0.003 percent dose per gram
- Tissue distribution of radioactivity, Heart ([1]; 5 min after injection): 0.29 ± 0.012 percent dose per gram
- Tissue distribution of radioactivity, Kidney ([1]; 5 min after injection): 6.36 percent dose per gram
- Tissue distribution of radioactivity, Liver ([1]; 5 min after injection): 0.65 percent dose per gram
- Tissue distribution of radioactivity, Lung ([1]; 5 min after injection): 0.55 ± 0.006 percent dose per gram
- Tissue distribution of radioactivity, Muscle ([1]; 5 min after injection): 0.22 ± 0.013 percent dose per gram
- Tissue distribution of radioactivity, Pancreas ([1]; 5 min after injection): 3.46 percent dose per gram
- Tissue distribution of radioactivity, Spleen ([1]; 5 min after injection): 0.83 ± 0.05 percent dose per gram
- Tissue distribution of radioactivity, Testis ([1]; 5 min after injection): 0.17 ± 0.010 percent dose per gram
- Tissue distribution of radioactivity, Kidney [1, 2]: 6.36 ± 0.36 percent dose per gram
- Tissue distribution of radioactivity, Liver [1, 2]: 0.65 ± 0.05 percent dose per gram
- Tissue distribution of radioactivity, Pancreas [1, 2]: 3.46 ± 0.19 percent dose per gram
- Tissue distribution of radioactivity, Blood ([1]; 30 min after injection): 0.25 ± 0.014 percent dose per gram
- Tissue distribution of radioactivity, Bone ([1]; 30 min after injection): 0.22 ± 0.02 percent dose per gram
- Tissue distribution of radioactivity, Brain ([1]; 30 min after injection): 0.05 ± 0.004 percent dose per gram
- Tissue distribution of radioactivity, Heart ([1]; 30 min after injection): 0.29 ± 0.04 percent dose per gram
- Tissue distribution of radioactivity, Kidney ([1]; 30 min after injection): 5.59 ± 0.28 percent dose per gram
- Tissue distribution of radioactivity, Liver ([1]; 30 min after injection): 0.56 ± 0.04 percent dose per gram
- Tissue distribution of radioactivity, Lung ([1]; 30 min after injection): 0.54 ± 0.12 percent dose per gram
- Tissue distribution of radioactivity, Muscle ([1]; 30 min after injection): 0.22 ± 0.009 percent dose per gram
- Tissue distribution of radioactivity, Pancreas ([1]; 30 min after injection): 2.93 ± 0.20 percent dose per gram
- Tissue distribution of radioactivity, Spleen ([1]; 30 min after injection): 0.54 ± 0.03 percent dose per gram
- Tissue distribution of radioactivity, Testis ([1]; 30 min after injection): 0.10 ± 0.006 percent dose per gram
- Tissue distribution of radioactivity, Blood ([1]; 60 min after injection): 0.22 ± 0.02 percent dose per gram
- Tissue distribution of radioactivity, Bone ([1]; 60 min after injection): 0.19 ± 0.03 percent dose per gram
- Tissue distribution of radioactivity, Brain ([1]; 60 min after injection): 0.06 ± 0.004 percent dose per gram
- Tissue distribution of radioactivity, Heart ([1]; 60 min after injection): 0.28 ± 0.013 percent dose per gram
- Tissue distribution of radioactivity, Kidney ([1]; 60 min after injection): 4.74 ± 0.15 percent dose per gram
- Tissue distribution of radioactivity, Liver ([1]; 60 min after injection): 0.50 ± 0.013 percent dose per gram
- Tissue distribution of radioactivity, Lung ([1]; 60 min after injection): 0.44 ± 0.05 percent dose per gram
- Tissue distribution of radioactivity, Muscle ([1]; 60 min after injection): 0.26 ± 0.02 percent dose per gram
- Tissue distribution of radioactivity, Pancreas ([1]; 60 min after injection): 2.95 ± 0.27 percent dose per gram
- Tissue distribution of radioactivity, Spleen ([1]; 60 min after injection): 0.50 ± 0.04 percent dose per gram
- Tissue distribution of radioactivity, Testis ([1]; 60 min after injection): 0.12 ± 0.006 percent dose per gram
- Tissue distribution of radioactivity, Blood ([1]; 120 min after injection): 0.15 ± 0.005 percent dose per gram
- Tissue distribution of radioactivity, Bone ([1]; 120 min after injection): 0.13 ± 0.012 percent dose per gram
- Tissue distribution of radioactivity, Brain ([1]; 120 min after injection): 0.05 ± 0.001 percent dose per gram
- Tissue distribution of radioactivity, Heart ([1]; 120 min after injection): 0.23 ± 0.03 percent dose per gram
- Tissue distribution of radioactivity, Kidney ([1]; 120 min after injection): 2.97 percent dose per gram
- Tissue distribution of radioactivity, Liver ([1]; 120 min after injection): 0.48 percent dose per gram
- Tissue distribution of radioactivity, Lung ([1]; 120 min after injection): 0.37 ± 0.10 percent dose per gram
- Tissue distribution of radioactivity, Muscle ([1]; 120 min after injection): 0.19 ± 0.003 percent dose per gram
- Tissue distribution of radioactivity, Pancreas ([1]; 120 min after injection): 2.48 percent dose per gram
- Tissue distribution of radioactivity, Spleen ([1]; 120 min after injection): 0.33 ± 0.02 percent dose per gram
- Tissue distribution of radioactivity, Testis ([1]; 120 min after injection): 0.10 ± 0.004 percent dose per gram
- Tissue distribution of radioactivity, Kidney [1, 3]: 2.97 ± 0.17 percent dose per gram
- Tissue distribution of radioactivity, Liver [1, 3]: 0.48 ± 0.03 percent dose per gram
- Tissue distribution of radioactivity, Pancreas [1, 3]: 2.48 ± 0.03 percent dose per gram
- uptake of radioactivity in heart, lung, bone, blood, muscle and testis ([1]; normal rats, 5 minutes): < 0.55 % ID/g
- brain uptake of radioactivity ([1]; normal rats, all time points): approximately 0.05 % ID/g
- Tissue distribution of radioactivity, Blood (9 L gliosarcoma tumor; 5 min after injection): 0.72 ± 0.05 percent dose per gram
- Tissue distribution of radioactivity, Bone (9 L gliosarcoma tumor; 5 min after injection): 0.38 ± 0.04 percent dose per gram
- Tissue distribution of radioactivity, Heart (9 L gliosarcoma tumor; 5 min after injection): 0.40 ± 0.04 percent dose per gram
- Tissue distribution of radioactivity, Kidney (9 L gliosarcoma tumor; 5 min after injection): 8.66 ± 1.27 percent dose per gram
- Tissue distribution of radioactivity, Liver (9 L gliosarcoma tumor; 5 min after injection): 0.77 ± 0.22 percent dose per gram
- Tissue distribution of radioactivity, Lung (9 L gliosarcoma tumor; 5 min after injection): 0.84 ± 0.03 percent dose per gram
- Tissue distribution of radioactivity, Muscle (9 L gliosarcoma tumor; 5 min after injection): 0.39 ± 0.02 percent dose per gram
- Tissue distribution of radioactivity, Pancreas (9 L gliosarcoma tumor; 5 min after injection): 5.31 ± 0.68 percent dose per gram
- Tissue distribution of radioactivity, Spleen (9 L gliosarcoma tumor; 5 min after injection): 0.72 ± 0.06 percent dose per gram
- Tissue distribution of radioactivity, Testis (9 L gliosarcoma tumor; 5 min after injection): 0.22 ± 0.02 percent dose per gram
- Tissue distribution of radioactivity, Tumor (9 L gliosarcoma tumor; 5 min after injection): 0.91 percent dose per gram
- Tissue distribution of radioactivity, Tumor (9 L gliosarcoma tumor; [2]): 0.91 ± 0.05 percent dose per gram
- Tissue distribution of radioactivity, Blood (9 L gliosarcoma tumor; 60 min after injection): 0.26 ± 0.03 percent dose per gram
- Tissue distribution of radioactivity, Bone (9 L gliosarcoma tumor; 60 min after injection): 0.25 ± 0.05 percent dose per gram
- Tissue distribution of radioactivity, Heart (9 L gliosarcoma tumor; 60 min after injection): 0.33 ± 0.06 percent dose per gram
- Tissue distribution of radioactivity, Kidney (9 L gliosarcoma tumor; 60 min after injection): 6.20 ± 1.45 percent dose per gram
- Tissue distribution of radioactivity, Liver (9 L gliosarcoma tumor; 60 min after injection): 0.66 ± 0.16 percent dose per gram
- Tissue distribution of radioactivity, Lung (9 L gliosarcoma tumor; 60 min after injection): 0.38 ± 0.04 percent dose per gram
- Tissue distribution of radioactivity, Muscle (9 L gliosarcoma tumor; 60 min after injection): 0.31 ± 0.03 percent dose per gram
- Tissue distribution of radioactivity, Pancreas (9 L gliosarcoma tumor; 60 min after injection): 2.86 ± 0.34 percent dose per gram
- Tissue distribution of radioactivity, Spleen (9 L gliosarcoma tumor; 60 min after injection): 0.55 ± 0.08 percent dose per gram
- Tissue distribution of radioactivity, Testis (9 L gliosarcoma tumor; 60 min after injection): 0.14 ± 0.02 percent dose per gram
- Tissue distribution of radioactivity, Tumor (9 L gliosarcoma tumor; 60 min after injection): 1.96 percent dose per gram
- Tissue distribution of radioactivity, Tumor (9 L gliosarcoma tumor; [4]): 1.96 ± 0.10 percent dose per gram
- Tissue distribution of radioactivity, Blood (9 L gliosarcoma tumor; 120 min after injection): 0.16 ± 0.01 percent dose per gram
- Tissue distribution of radioactivity, Bone (9 L gliosarcoma tumor; 120 min after injection): 0.16 ± 0.01 percent dose per gram
- Tissue distribution of radioactivity, Heart (9 L gliosarcoma tumor; 120 min after injection): 0.22 ± 0.02 percent dose per gram
- Tissue distribution of radioactivity, Kidney (9 L gliosarcoma tumor; 120 min after injection): 3.64 ± 0.26 percent dose per gram
- Tissue distribution of radioactivity, Liver (9 L gliosarcoma tumor; 120 min after injection): 0.25 ± 0.02 percent dose per gram
- Tissue distribution of radioactivity, Lung (9 L gliosarcoma tumor; 120 min after injection): 0.24 ± 0.03 percent dose per gram
- Tissue distribution of radioactivity, Muscle (9 L gliosarcoma tumor; 120 min after injection): 0.21 ± 0.01 percent dose per gram
- Tissue distribution of radioactivity, Pancreas (9 L gliosarcoma tumor; 120 min after injection): 1.42 ± 0.17 percent dose per gram
- Tissue distribution of radioactivity, Spleen (9 L gliosarcoma tumor; 120 min after injection): 0.32 ± 0.02 percent dose per gram
- Tissue distribution of radioactivity, Testis (9 L gliosarcoma tumor; 120 min after injection): 0.11 ± 0.003 percent dose per gram
- Tissue distribution of radioactivity, Tumor (9 L gliosarcoma tumor; 120 min after injection): 1.87 percent dose per gram
- Tissue distribution of radioactivity, Tumor (9 L gliosarcoma tumor; [3]): 1.87 ± 0.2 percent dose per gram
- Tissue distribution of radioactivity, Brain (9 L gliosarcoma tumor; 5 min after injection): 0.035 ± 0.002 percent dose per gram
- Tissue distribution of radioactivity, Brain (9 L gliosarcoma tumor; 60 min after injection): 0.054 percent dose per gram
- Tissue distribution of radioactivity, Brain (9 L gliosarcoma tumor; [4]): 0.054 ± 0.01 percent dose per gram
- Tissue distribution of radioactivity, Brain (9 L gliosarcoma tumor; 120 min after injection): 0.050 percent dose per gram
- Tissue distribution of radioactivity, Brain (9 L gliosarcoma tumor; [3]): 0.050 ± 0.004 percent dose per gram
- uptake in normal brain tissue contralateral to the tumor (9 L gliosarcoma tumor; tumor-bearing rats, each time point (5, 60, 120 minutes)): approximately 0.05 % ID/g
